From ChEMBL document CHEMBL3826922, “Synthesis 4-[2-(2-mercapto-4-oxo-4H-quinazolin-3-yl)-ethyl]-benzenesulfonamides with subnanomolar carbonic anhydrase II and XII inhibitory properties” (Bioorg Med Chem, 2016) come the findings set out here.

The target of assay [1] is Carbonic anhydrase 1 (Homo sapiens, UniProt P00915). In words: Inhibition of human CA1 preincubated for 15 mins by stopped flow CO2 hydration assay.
Assay [2] has as its target Carbonic anhydrase 2 (Homo sapiens, UniProt P00918). In words: Inhibition of human CA2 preincubated for 15 mins by stopped flow CO2 hydration assay.
Assay [3] addresses Carbonic anhydrase 12 (Homo sapiens, UniProt O43570). Nature of the assay: Inhibition of human CA12 preincubated for 15 mins by stopped flow CO2 hydration assay.

Carbonic anhydrase 12, sequence (O43570 whole entry): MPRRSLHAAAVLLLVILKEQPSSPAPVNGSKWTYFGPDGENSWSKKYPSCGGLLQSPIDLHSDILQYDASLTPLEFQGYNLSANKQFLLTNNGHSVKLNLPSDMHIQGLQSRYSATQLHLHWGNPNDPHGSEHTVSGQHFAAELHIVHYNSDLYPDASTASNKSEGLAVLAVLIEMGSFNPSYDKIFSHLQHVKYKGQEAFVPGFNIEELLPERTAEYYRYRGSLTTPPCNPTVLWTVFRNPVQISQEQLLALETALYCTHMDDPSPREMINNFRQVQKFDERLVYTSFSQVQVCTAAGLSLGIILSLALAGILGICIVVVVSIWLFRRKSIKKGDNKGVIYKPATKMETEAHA
Carbonic anhydrase 1, sequence (P00915 whole entry): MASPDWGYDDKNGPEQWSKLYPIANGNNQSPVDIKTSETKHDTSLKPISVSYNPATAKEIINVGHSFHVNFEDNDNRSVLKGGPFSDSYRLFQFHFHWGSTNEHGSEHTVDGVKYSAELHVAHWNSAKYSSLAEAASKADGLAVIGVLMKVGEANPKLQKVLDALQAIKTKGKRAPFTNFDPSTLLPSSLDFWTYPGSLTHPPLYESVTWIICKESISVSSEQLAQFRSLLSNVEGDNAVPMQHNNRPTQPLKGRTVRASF

With `NS(=O)(=O)c1ccc(CCn2c(=S)[nH]c3ccc(F)cc3c2=O)cc1`, the Ki in assay [1] was found to be 212 nM; in assay [2], 12.4 nM; in assay [3], 0.62 nM.

As a reminder, the Ki is the dissociation constant of the complex between target and ligand, obtained from inhibition or displacement. Lower therefore signals tighter binding.
